According to PubChem BioAssay AID624404 (Broad Institute, 2012):
Inconclusive results are not listed.

What follows are compounds tested on D54 LucT luciferase reporter counterscreen, luminescence, 24 h (assay: luciferase activators in glycosylation-insensitive reporter cells, dose response, counter-screen for N-linked glycosylation inhibitor project, D54 LucT cells, luminescence, cherry pick (AID 624404)).

SMILES | AC35
CC(NC(=O)c1ccc2ccccc2n1)c1ccc(S(N)(=O)=O)cc1 (stereo not drawn) | 0.977 µM
CC(=O)Nc1sc(C)c(C)c1C(=O)OCC(=O)Nc1ccccc1 | 1.92 µM
COc1ccc(NC(=O)C2Cc3c(-c4cccc(NC(C)=O)c4)ccnc3O2)cc1 (stereo not drawn) | 0.0189 µM
COCCCNC(=O)c1ccc(-c2c(C)noc2C)c2ccoc12 | 2.33 µM
Cc1ccc(C(=O)N/C(=C/c2ccco2)C(=O)NCCc2c[nH]c3ccccc23)cc1 | 1.75 µM
COc1ccc2c(c1)C(=O)N1[C@H]3c4cc(C)ccc4OC[C@@H]3[C@H](c3ccccc3)[C@]1(C)C(=O)N2 | 0.933 µM
O=C1Cc2c([nH]c3ccc(Br)cc23)-c2ccccc2N1 | 0.00252 µM
O=C(CCl)Nc1cccc(S(=O)(=O)NC2=NCCC2)c1 | 1.62 µM
CCOC(=O)Nc1nc2ccc(Cn3cccc3)cc2[nH]1 | 0.115 µM
Nc1c(C(=O)c2ccccc2)sc2nsc(SCCN3CCOCC3)c12 | 0.0578 µM
COc1ccc(C(=O)n2c(-c3ccco3)nc3ccccc32)cc1 | 0.934 µM
CCOc1cc(N2CCOCC2)c(OCC)cc1NC(=O)c1[nH]c(C)c(C(C)=O)c1C | 0.0107 µM
COc1cccc(/C=C2\SC(=S)N(CCC(=O)N3CCCCC3)C2=O)c1 | 4.37 µM
O=c1cc(N2CCN(c3ccccc3Cl)CC2)[nH]c(=O)n1Cc1ccc(F)cc1 | 3.26 µM
O=C(N/N=C\c1cn(-c2ccccc2)nc1-c1ccccc1)c1ccc(Br)o1 | 0.957 µM
O=C(c1ccccc1-c1ccccc1)N1CCN(c2ccccn2)CC1 | 2.04 µM
NC(=O)c1cccc(-c2ccnc3c2CC(C(=O)NCc2ccccc2)O3)c1 (stereo not drawn) | 0.283 µM
Cc1cccc(N2CCN(C(=O)c3cc(S(=O)(=O)N4CCCC4)cn3C)CC2)c1C | 0.0333 µM
c1ccc(CNc2nc(-c3ccccc3)nc3ccccc23)cc1 | 3.01 µM
Cc1ccc(C)c(Cn2nnc3c(=O)[nH]c(C4CCN(C(=O)c5ccco5)CC4)nc32)c1 | 0.852 µM
Cc1ccc(C(=O)N/C(=C\c2cccs2)C(=O)NCCc2c[nH]c3ccccc23)cc1 | 1.09 µM
COc1ccc(-c2cc(C(=O)NCC(c3ccccc3)N(C)C)c3ccccc3n2)cc1OC (stereo not drawn) | 1.1 µM
COc1cc(/C=N/n2cnc3scc(-c4cccs4)c3c2=O)cc(OC)c1OC | 0.177 µM
Cc1cc(C)n(-c2nnc3n2N=C(c2c[nH]c4ccccc24)CS3)n1 | 0.0285 µM
CCOc1cc(C)nc(NCc2ccccc2)n1 | 5.19 µM
COc1cccc(C(=O)Nc2sc3c(c2C#N)CCN(C(C)=O)C3)c1 | 0.0635 µM

SMILES | AC35
CC[C@H](C)C(=O)O[C@H]1C[C@@H](C)C=C2C=C[C@H](C)[C@H](CC[C@@H]3C[C@@H](O)CC(=O)O3)[C@H]21 | 0.695 µM
CC(Nc1nc(-c2cccnc2)nc2ccccc12)c1ccccc1 (stereo not drawn) | 1.05 µM
CN(CCCNC(=O)CCCOc1cc(=O)n(C)c2ccccc12)Cc1ccccc1 | 5.23 µM
COc1ccc(C(=O)N2CCN(S(=O)(=O)c3ccc(C)cc3C)CC2)cc1S(=O)(=O)N1CCOCC1 | 4.79 µM
Cc1ccc(/C=N/NC(=O)c2sccc2OCc2ccc(F)cc2)cc1 | 1.26 µM
Cn1c(-c2ccccc2)c(/C=N/NC(=O)c2cccnc2)c2ccccc21 | 0.171 µM
COc1cc(OC)cc(C(=O)NCC(=O)Nc2ccc(-c3ccccc3)cc2)c1 | 0.501 µM
COc1ccc([C@@H]2[C@@H]3C(=O)N(C(C)(C)C)C(=O)[C@@H]3[C@]3(Cc4ccccc4)C(=O)N(c4cccc(C)c4)C(=O)N23)cc1 | 0.843 µM
COc1ccccc1N=CC1=C(O)CC(c2ccccc2)CC1=O (stereo not drawn) | 0.173 µM
Cc1ccc2c(CC(=O)NCc3ccco3)coc2c1C | 4.46 µM
Cc1cccc(C(=O)Oc2ccccc2/C=N/NC(=O)c2ccc(NC(=O)C(C)(C)C)cc2)c1 | 2.69 µM
O=C(CSc1nnc(-c2cc3ccccc3cc2O)n1Cc1ccco1)N1CCc2ccccc2C1 | 1.28 µM
Cc1cc(NS(=O)(=O)c2ccc(NC(=O)COc3c(C)cc(Br)cc3C)cc2)no1 | 1.66 µM
CCOC(=O)c1c(C)c(C(=O)Nc2ccc(N(C)C)cc2)c(C)n1CC | 3.56 µM
CCOC(=O)N/N=C/c1ccc(N(CC)CC)cc1O | 2.58 µM
COc1ccc(CNC(=O)c2cccc3c(-c4cccnc4)coc23)cc1OC | 2.6 µM
CC(=O)Nc1ccc(NC(=O)c2ccc(-c3c(C)noc3C)c3ccoc23)cc1 | 5.69 µM
O=C(c1ccc(CS(=O)c2ccccc2Cl)o1)N1CCN(c2ccccn2)CC1 (stereo not drawn) | 5.64 µM
Cc1nc(N=C(N)N)nc2c(C)cccc12 | 3.82 µM
COc1ccc([C@@H]2[C@@H]3C(=O)N(C(C)(C)C)C(=O)[C@@H]3[C@]3(Cc4ccccc4)C(=O)N(c4cccc(Cl)c4)C(=O)N23)cc1 | 2.18 µM
O=C(NCCN1C(=O)S/C(=C\c2ccccc2Cl)C1=O)C1=COCCO1 | 4.98 µM
CC#CC#Cc1cccc(=O)o1 | 0.407 µM
CC(C)(C)c1ccc(OCc2ccc(C(=O)N3CCOCC3)o2)cc1 | 1.46 µM
N#Cc1c(-c2ccc(F)cc2)c(-c2ccc(F)cc2)nn(CCO)c1=O | 0.997 µM
COc1ccc2nc3ccccc3nc2c1NC(=O)c1ccccc1Cl | 17.9 µM
O=c1cc(-c2ccccc2)[nH]c2ccccc12 | 2.48 µM

SMILES | AC35
COCCCNC(=O)Cc1c(C)c2c(cc(C)c3c(C(C)(C)C)coc32)oc1=O | 0.156 µM
COc1ccc(CC(=O)N(Cc2ccccc2)c2ccc(C)cc2)cc1S(=O)(=O)N1CCOCC1 | 2.5 µM
Cc1ccnc(NC(=O)CCCOc2cc(=O)n(C)c3ccccc23)c1 | 3.22 µM
CC(=O)c1ccc(Nc2nc(-c3sc(C)nc3C)cs2)cc1 | 0.0173 µM
COc1cc2c(cc1OC)C(c1ccccc1)N(C(=O)c1ccco1)CC2 (stereo not drawn) | 0.375 µM
CCCNc1nc2ccccc2n2c(C)nnc12 | 0.0191 µM
COc1cc(C(=O)Nc2cc3c(cc2N2CCCCC2)n(C)c(=O)n3C)cc(OC)c1OC | 0.0964 µM
COc1cccc(N2CCN(C(=O)c3ccc(CS(=O)c4ccc(Cl)cc4)o3)CC2)c1 (stereo not drawn) | 0.773 µM
Cc1ccc(-c2nc(NCCN(C)C)c3ccccc3n2)cc1 | 4.45 µM
COc1ccc(OC)c(Nc2nc(-c3c(C)nc4ncccn34)cs2)c1 | 1.1 µM
COc1ccc(CC(=O)Nc2ccc(-c3ccc4nnc(C)n4n3)cc2)cc1OC | 1.8 µM
Cc1nnc2c3ccccc3c(-c3ccccc3)nn12 | 0.221 µM
CCOc1ccc(Nc2nc(N(C)c3ccccc3)nc(N)c2[N+](=O)[O-])cc1 | 0.128 µM
COc1cc2c(cc1OC)C(c1cccs1)N(C(=O)c1cccnc1)CC2 (stereo not drawn) | 0.438 µM
CC(C)[n+]1ccn(C2=C([O-])c3ccccc3C(=O)/C2=N\S(=O)(=O)c2ccccc2)c1 | 2.37 µM
N#Cc1c(NC(=O)/C=C/c2ccco2)sc2c1CCCC2 | 0.115 µM
COc1cccc(NC(=O)CCCOc2cc(=O)n(C)c3ccccc23)c1 | 4.63 µM
CCn1c(=S)[nH]c2cc(S(=O)(=O)N3CCCCC3)ccc21 | 1.25 µM
O=C(COc1ccccc1)Nc1cccc(-c2cn3cccnc3n2)c1 | 1.08 µM
CCOC(=O)c1c(C)[nH]c(-c2csc(N)n2)c1C | 0.787 µM
COc1ccc2c(c1)OC[C@H]1[C@H]2N2C(=O)c3ccc(F)cc3NC(=O)[C@@]2(C)[C@H]1c1ccccc1 | 1.07 µM
COc1cccc(C2=CC(c3cccs3)n3nnnc3N2)c1 (stereo not drawn) | 0.951 µM
Cc1c2cnccc2c(C)c2c1oc1ccccc12 | 3.32 µM
O=C(N/N=C/c1c(-c2ccccc2)[nH]c2ccccc12)c1cccnc1 | 1.28 µM
O=C(Nc1ccccc1-c1ccccc1)C1CCCC1 | 1.22 µM
CC(=O)Nc1ccc(C(=O)N/N=C/c2ccccc2OCc2ccccc2)cc1 | 4.36 µM
